Patent US12122804B2, “γ-aminobutyric acid modulator crystal form X, preparation method and application thereof” (SHENZHEN RENTAI […]., priority 2019, dated 2024)

Columns and labels:
[1] = High-humidity stability of the crystal form (XRPD comparison); assay type: physicochemical; conditions: 92.5% RH, 25° C., 5 days and 10 days, FIG. 16
Procedure: (§1) The crystal form X prepared in Example 5 is tested as follows.
(4) High-humidity stability: the test sample is placed in an environment having a humidity of 92.5% RH and a temperature of 25° C. for 5 days and 10 days, respectively, to test the stability of the crystal form.

[2] = Accelerated stability of the crystal form (XRPD comparison); assay type: physicochemical; conditions: 75% RH, 40° C., 5 days and 10 days, FIG. 15
Procedure: as §1
(3) Accelerated stability: the test sample is placed in an environment having a humidity of 75% RH and a temperature of 40° C. for 5 days and 10 days, respectively, to test the stability of the crystal form.

[3] = Light stability of the crystal form (XRPD comparison); assay type: physicochemical; conditions: 25° C., 4500 Lux, 5 days and 10 days, FIG. 13
Procedure: as §1
(1) Light stability: the test sample is placed in an environment having a temperature of 25° C. and a light condition of 4500 Lux for 5 days and 10 days, respectively, to test the stability of the crystal form.

[4] = High-temperature stability of the crystal form (XRPD comparison); assay type: physicochemical; conditions: 60° C., 5 days and 10 days, FIG. 14
Procedure: as §1
(2) High-temperature stability: the test sample is placed at a temperature of 60° C. for 5 days and 10 days, respectively, to test the stability of the crystal form.

[5] = Comparison of crystal form X with crystal form K (XRPD, FIG. 17; stability); assay type: physicochemical
[6] = assessment of data of WO2018039378A1: crystal transformation, XRPD at different temperatures; cited from earlier work

| SMILES | High-humidity stability of the crystal form [1] | Accelerated stability of the crystal form [2] | Light stability of the crystal form [3] | High-temperature stability of the crystal form [4] | Stability relative to crystal form K [5] | Crystal form stability (suitability as medicinal crystal form) [6] |
| --- | --- | --- | --- | --- | --- | --- |
| C[C@@]1(O)CC[C@H]2[C@H](CC[C@@H]3[C@@H]2CC[C@]2(C)[C@@H](C(=O)Cn4cc(C#N)cn4)CC[C@@H]32)C1 [crystal form X, 3α-hydroxy-3β-methyl-21-(4-cyano-1H-pyrazol-1′-yl)-19-nor-5β-pregnan-20-one] | good high-humidity stability | good accelerated stability | good light stability | good high-temperature stability | better stability than the crystal form K | – |
| C[C@@]1(O)CC[C@H]2[C@H](CC[C@@H]3[C@@H]2CC[C@]2(C)[C@@H](C(=O)Cn4cc(C#N)cn4)CC[C@@H]32)C1 [crystal form A, 3α-hydroxy-3β-methyl-21-(4-cyano-1H-pyrazol-1′-yl)-19-nor-5β-pregnan-20-one] | – | – | – | – | – | unstable |
